From US20230293473A1, “THERAPEUTIC DRUG FOR DISEASE CAUSED BY INTESTINAL IMMUNE DISORDER” (KEIO UNIVERSITY, priority 2020, published 2023) come the findings set out here.

For one test, the system named is HVx mice. Briefly: In vivo administration of bethanechol, GTS-21 or MLA to HVx mice; colonic APC and Treg phenotypes. The method, then:
Bilateral or unilateral (left or right) subdiaphragmatic vagotomy was performed as previously reported (FIGS. 5c and 5d)^52. A midline incision was made to provide wide exposure of the upper abdominal organ in male mice anesthetized with the combination of medetomidine, midazolam, and butorphanol. The bilateral subdiaphragmatic trunks of vagal nerves along the esophagus were exposed and cut. In the sham operation group, these vagal trunks were exposed but not cut. Selective hepatic vagotomy (HVx) was performed as described (FIG. 7)^25. The ventral subdiaphragmatic vagal trunk was exposed as described above under anesthesia. […]
FIG. 3 The liver-brain-gut axis regulates colonic Treg homeostasis through muscarinic signaling in APC. a-d, WT and mAChR TKO mice were subjected to Sham or HVx. e, WT and mAchR TKO mice were subjected to Sham or HVx and injected additionally treated with bethanechol (BETH; i.p. 300 μg/day) every day. Phenotypes of colonic immune cell were analyzed at day 2 after surgery (n=5/group). a, Frequency of ALDH^+ cells among MHC-II^+ colonic APCs. […] Quantification (right panel). b, Aldh1a1 and Aldh1a2 mRNA expression in colonic APC. c, e, Frequency of Foxp3^+ cells among CD4^+ cells in the colon. d, Frequency of RORγt^+ cells among colonic Foxp3^+ Tregs. […]

For test [1], the system named is hepatic vagal sensory afferents. Kind of test: Selective hepatic vagal afferent blockade by perivagal application of capsaicin; colonic Treg and APC analysis. In kind it is in vivo, mice. As to conditions: perivagal capsaicin 10 mg/ml, 30 minutes; day 2. How it is done:
The hepatic branch of the vagal trunk was freed from the surrounding tissues by paraffin paper and then wrapped for 30 minutes with cotton bud soaked with vehicle (Tween 80: olive oil=1:9) alone or 10 mg/ml capsaicin dissolved in the vehicle solution. The cotton string was removed 30 minutes later and the abdominal incision was closed^28. Aldehyde dehydrogenase (ALDH) activity was determined using ALDEFLUOR staining kit according to the manufacturer's protocol. In brief, cells were suspended at a concentration of 10^6 cells/ml in ALDEFLUOR assay buffer containing activated ALDEFLUOR substrate (final concentration of 1.5 μM) with or without the ALDH inhibitor diethylaminobenzaldehyde (DEAB) (final concentration of 15 μM) and incubated at 37° C. for 30 minutes. […] Phenotypic analysis of T cell and APC in colon was performed at day 2 after application of capsaicin (c, d, n=16/group; e, f, n=8/group). a, b, Representative fluorescence images of TRPV1 (red) and DAPI (blue) in NG (a) and Th4-DRG (b). […] Quantification (right panel). d, Frequency of RORγt^+ cells among colonic Foxp3^+ Tregs. […] TRPV1^+ nerves in spinal cord (Th4-7 and Th13) and colonic immune cells were analyzed at day 7 after administration. g, Fluorescent immunohistochemistry of TRPV1^+ neuron in spinal cord (bar: 200 μm). […]

In test [2] the test system is common hepatic branch of the vagus nerve. Briefly: pERK immunostaining in nodose ganglion after capsaicin deafferentation of the common hepatic branch of the vagus nerve. The format is in vivo, mice. The method, then: The hepatic branch of the vagal trunk was freed from the surrounding tissues by paraffin paper and then wrapped for 30 minutes with cotton bud soaked with vehicle (Tween 80: olive oil=1:9) alone or 10 mg/ml capsaicin dissolved in the vehicle solution. The cotton string was removed 30 minutes later and the abdominal incision was closed^28. pEKR1/2 and c-Fos expression were analyzed immunohistochemically as reported 1. DSS-treated mice were transcardially perfused with PBS including 4% paraformaldehyde and 0.2% picric acid under anesthesia. The nodose ganglions and brains were collected, post-fixed in the same fixative for 2 hours to overnight at 4° C. and then incubated in phosphate buffer containing 30% sucrose for 48 hours. Longitudinal sections (8 μm) of NGs were cut with 48 μm intervals using a precision cryostat (Leica Microsystems, IL). Coronal sections (40 μm) of hindbrain were cut with 120 μm intervals using a freezing microtome. Rabbit polyclonal antibody to pERK1/2 (1/500) and Alexa 488-conjugated goat anti-rabbit IgG (1/500) were used. Fluorescence images were acquired with BX50 microscope and DP50 digital camera (Olympus). […] Neurons immunoreactive to pERK1/2 and c-Fos in medial NTS were counted. […] Representative fluorescence images of Alexa Fluor 488^+ neuron (green) and DAPI (blue) in NG at 1 week after injection of WGA in liver (c) and quantification (d). […]

The next test deals with colonic APCs. Briefly: In vitro Treg induction assay: naive CD4+ cells with colonic APCs in the presence of muscarine. The format is cell-based. Conditions: colonic APCs from WT mice precultured with muscarine. How it is done: Naive CD4^+ cells were isolated from spleen in WT mice using naive CD4^+ T cell isolation kit. Naive CD4^+ cells (1×10^5) were cultured in RPMI-1640 medium supplemented with 10% FBS, 2 mM glutamine, 100 U/ml penicillin, 100 µg/ml streptomycin, and 55 μM 2-mercaptoethanol in 96 well plate.
a, Three-dimensional reconstruction of CX3CR1^+ APC (green) and enteric neurons (purple) in colon in mice. b, Three-dimensional reconstruction of MHCII^+ APC (green), enteric Tuj^+ neurons (purple), and Foxp3^+ Tregs (yellow). c, d, Anatomical diagram (c) and operative field (d) for subdiaphragmatic truncal vagotomy. e, f, Colonic T cell phenotypes in mice after VGx surgery. […] Quantification (n=6/group). […]

Regarding `CC(C[N+](C)(C)C)OC(N)=O` (stereo not drawn) [bethanechol], the “frequency of pTregs” value in the test on HVx mice (HVx WT mice, BETH i.p. 300 μg/day) is “increased”. In the test with HVx mice (HVx mice compared with sham-operated mice, BETH i.p. 300 μg/day for 2 days), the “Aldh1a1 and Aldh1a2 expression in colonic APCs” value is listed as “restored”.
Take `COc1cc(CNC(=O)CCCC/C=C/C(C)C)ccc1O` [capsaicin]: in test [1], the “aldehyde dehydrogenase activity in APCs” value is reported as “reduced” and the “colonic Treg numbers” value was “reduced”. In test [2], the “number of pERK positive cells in the left NG” value was “significantly reduced”.
For `C[C@@H]1O[C@H](C[N+](C)(C)C)C[C@H]1O` [muscarine], the “generation of Foxp3+ Tregs” value with colonic APCs is given as “enhanced”.
